Among the data in patent US6462037B1, “1,4-benzodiazepin-2-ones useful as HIV reverse transcriptase inhibitors” (Bristol-Myers Squibb Pharma Company, priority 1999, dated 2002) are melting point values, retold here.

As to `CCCCN1CC(=O)Nc2ccc(Cl)cc2C1C(F)(F)F` (centres unmarked) [compound 100, 7-Chloro-4-butyl-1,5-dihydro-5-(trifluoromethyl)-1,4-benzodiazepin-2-one], the melting point lay within 89 to 92 °C.

Compound `CC(C)=CCN1CC(=O)Nc2ccc(Cl)cc2C1C(F)(F)F` (centres unmarked) [compound 101, 7-Chloro-4-(3-methyl-2-butenyl)-1,5-dihydro-5-(trifluoromethyl)-1,4-benzodiazepin-2-one] showed a melting point of 120 to 125 °C. In the case of `O=C1CN(Cc2ccccn2)C(C(F)(F)F)c2cc(Cl)ccc2N1` (centres unmarked) [compound 102, 7-Chloro-4-(2-pyridylmethyl)-1,5-dihydro-5-(trifluoromethyl)-1,4-benzodiazepin-2-one] it was 184 to 187 °C. `Cc1ncc(CN2CC(=O)Nc3ccc(Cl)cc3C2C(F)(F)F)s1` (centres unmarked) [compound 103, 7-Chloro-4-(2-methyl-5-thiazolylmethyl)-1,5-dihydro-5-(trifluoromethyl)-1,4-benzodiazepin-2-one] registered a melting point of 196 to 220 °C. As for `Cc1ccc(CN2CC(=O)Nc3ccc(Cl)cc3C2C(F)(F)F)nc1` (centres unmarked) [compound 104, 7-Chloro-4-(5-methyl-2-pyridylmethyl)-1,5-dihydro-5-(trifluoromethyl)-1,4-benzodiazepin-2-one], the melting point lay within 200 to 205 °C. The compound `O=C1CN(Cc2cccc(Cl)n2)C(C(F)(F)F)c2cc(Cl)ccc2N1` (centres unmarked) [compound 105, 7-Chloro-4-(6-chloro-2-pyridylmethyl)-1,5-dihydro-5-(trifluoromethyl)-1,4-benzodiazepin-2-one] came in with a melting point of 184 to 186 °C. `CCCN1CC(=O)Nc2ccc(Cl)cc2C1C(F)(F)F` (centres unmarked) [compound 106, 7-Chloro-4-propyl-1,5-dihydro-5-(trifluoromethyl)-1,4-benzodiazepin-2-one] yielded a melting point of 123 to 124 °C. `CCCCCCN1CC(=O)Nc2ccc(Cl)cc2C1C(F)(F)F` (centres unmarked) [compound 107, 7-Chloro-4-hexyl-1,5-dihydro-5-(trifluoromethyl)-1,4-benzodiazepin-2-one] had a melting point of 87 to 88 °C. The result for `CCCCCN1CC(=O)Nc2ccc(Cl)cc2C1C(F)(F)F` (centres unmarked) [compound 108, 7-Chloro-4-pentyl-1,5-dihydro-5-(trifluoromethyl)-1,4-benzodiazepin-2-one] reads 114 to 115 °C. The compound `O=C1CN(CCCc2ccccc2)C(C(F)(F)F)c2cc(Cl)ccc2N1` (centres unmarked) [compound 109, 7-Chloro-4-(3-phenylpropyl)-1,5-dihydro-5-(trifluoromethyl)-1,4-benzodiazepin-2-one] came in with a melting point of 89 to 91 °C. `O=C1CN(Cc2ccccc2)C(C(F)(F)F)c2cc(Cl)ccc2N1` (centres unmarked) [compound 110, 7-Chloro-4-benzyl-1,5-dihydro-5-(trifluoromethyl)-1,4-benzodiazepin-2-one]: the melting point is 142 to 143 °C. `CCCCCN1CC(=O)Nc2ccc(Cl)cc2C1C(F)(F)F` (centres unmarked) [compound 111, 7-Chloro-4-pentyl-1,5-dihydro-5-(trifluoromethyl)-1,4-benzodiazepin-2-one] returned a melting point of 94 to 96 °C.

`Cc1ccccc1CN1CC(=O)Nc2ccc(Cl)cc2C1C(F)(F)F` (centres unmarked) [compound 113, 7-Chloro-4-(2-methylbenzyl)-1,5-dihydro-5-(trifluoromethyl)-1,4-benzodiazepin-2-one]: the melting point fell in the range of 197 to 198 °C.

`O=C1CN(Cc2ccccc2Br)C(C(F)(F)F)c2cc(Cl)ccc2N1` (centres unmarked) [compound 114, 7-Chloro-4-(2-bromobenzyl)-1,5-dihydro-5-(trifluoromethyl)-1,4-benzodiazepin-2-one] displayed a melting point of 161 to 162 °C. Consider `O=C1CN(Cc2c(F)cccc2Cl)C(C(F)(F)F)c2cc(Cl)ccc2N1` (centres unmarked) [compound 115, 7-Chloro-4-(2-chloro-6-fluorobenzyl)-1,5-dihydro-5-(trifluoromethyl)-1,4-benzodiazepin-2-one], for which the melting point is 171 to 172 °C. As for `N#Cc1ccccc1CN1CC(=O)Nc2ccc(Cl)cc2C1C(F)(F)F` (centres unmarked) [compound 116, 7-Chloro-4-(2-cyanobenzyl)-1,5-dihydro-5-(trifluoromethyl)-1,4-benzodiazepin-2-one], the melting point lay within 184 to 185 °C. `O=C1CN(Cc2c(F)cccc2F)C(C(F)(F)F)c2cc(Cl)ccc2N1` (centres unmarked) [compound 117, 7-Chloro-4-(2,6-difluorobenzyl)-1,5-dihydro-5-(trifluoromethyl)-1,4-benzodiazepin-2-one] showed a melting point of 173 to 174 °C.

`COc1cccc(CN2CC(=O)Nc3ccc(Cl)cc3C2C(F)(F)F)c1` (centres unmarked) [compound 118, 7-Chloro-4-(3-methoxybenzyl)-1,5-dihydro-5-(trifluoromethyl)-1,4-benzodiazepin-2-one] yielded a melting point of 171 to 172 °C. The result for `N#Cc1cccc(CN2CC(=O)Nc3ccc(Cl)cc3C2C(F)(F)F)c1` (centres unmarked) [compound 120, 7-Chloro-4-(3-cyanobenzyl)-1,5-dihydro-5-(trifluoromethyl)-1,4-benzodiazepin-2-one] reads 241 to 242 °C; that for `COc1ccccc1CN1CC(=O)Nc2ccc(Cl)cc2C1C(F)(F)F` (centres unmarked) [compound 121, 7-Chloro-4-(2-methoxybenzyl)-1,5-dihydro-5-(trifluoromethyl)-1,4-benzodiazepin-2-one], 145 to 146 °C. For the compound `O=C1CN(Cc2cccs2)C(C(F)(F)F)c2cc(Cl)ccc2N1` (centres unmarked) [compound 122, 7-Chloro-4-(2-thienylmethyl)-1,5-dihydro-5-(trifluoromethyl)-1,4-benzodiazepin-2-one], the melting point lay within 105 to 107 °C. In the case of `O=C1CN(Cc2ccsc2)C(C(F)(F)F)c2cc(Cl)ccc2N1` (centres unmarked) [compound 123, 7-Chloro-4-(3-thienylmethyl)-1,5-dihydro-5-(trifluoromethyl)-1,4-benzodiazepin-2-one], the melting point lay within 148 to 150 °C. For `O=C1CN(Cc2ccco2)C(C(F)(F)F)c2cc(Cl)ccc2N1` (centres unmarked) [compound 124, 7-Chloro-4-(2-furanylmethyl)-1,5-dihydro-5-(trifluoromethyl)-1,4-benzodiazepin-2-one], the melting point lay in the range of 143 to 145 °C. In turn, `CCC(C)CCN1CC(=O)Nc2ccc(Cl)cc2C1C(F)(F)F` (centres unmarked) [compound 125, 7-Chloro-4-(3-methylpentyl)-1,5-dihydro-5-(trifluoromethyl)-1,4-benzodiazepin-2-one] returned a melting point of 66 to 67 °C. Compound `COc1cccnc1CN1CC(=O)Nc2ccc(Cl)cc2C1C(F)(F)F` (centres unmarked) [compound 126, 7-Chloro-4-(3-methoxy-2-pyridylmethyl)-1,5-dihydro-5-(trifluoromethyl)-1,4-benzodiazepin-2-one] returned a melting point of 146 to 148 °C. Regarding `O=C1CN(CC#CC2CC2)C(C(F)(F)F)c2cc(Cl)ccc2N1` (centres unmarked) [compound 127, 7-Chloro-4-(3-cyclopropyl-2-propynyl)-1,5-dihydro-5-(trifluoromethyl)-1,4-benzodiazepin-2-one], the melting point was in the range of 121 to 123 °C. `CCCCC1(C(F)(F)F)N=CC(=O)Nc2ccc(Cl)cc21` (centres unmarked) [compound 128, 7-Chloro-5-butyl-1,5-dihydro-5-(trifluoromethyl)-1,4-benzodiazepin-2-one]: the melting point fell in the range of 121 to 123 °C. `CCCC#CCN1CC(=O)Nc2ccc(Cl)cc2C1C(F)(F)F` (centres unmarked) [compound 129, 7-Chloro-4-(2-hexynyl)-1,5-dihydro-5-(trifluoromethyl)-1,4-benzodiazepin-2-one] showed a melting point of 96 to 98 °C. In turn, `CCC(C)CCN1CC(=O)Nc2ccc(Cl)cc2C1C(F)(F)F` (centres unmarked) [compound 131, 7-Chloro-4-(3-methylpentyl)-1,5-dihydro-5-(trifluoromethyl)-1,4-benzodiazepin-2-one] registered a melting point of 113 to 116 °C. Consider `COc1cccc(F)c1CN1CC(=O)Nc2ccc(F)c(F)c2C1C(F)(F)F` (centres unmarked) [compound 132, 6,7-Difluoro-4-(2-fluoro-6-methoxybenzyl)-1,5-dihydro-5-(trifluoromethyl)-1,4-benzodiazepin-2-one], for which the melting point is 168 to 170 °C. `CC(C)C#CC1(C(F)(F)F)c2c(ccc(F)c2F)NC(=O)CN1O` (centres unmarked) [compound 133, 6,7-Difluoro-4-hydroxy-5-(3-methyl-1-butynyl)-1,5-dihydro-5-(trifluoromethyl)-1,4-benzodiazepin-2-one]: the melting point was in the range of 174 to 176 °C. With `CC(C)C#CC1(C(F)(F)F)N=CC(=O)Nc2ccc(Cl)cc21` (centres unmarked) [compound 134, 7-Chloro-5-(3-methyl-1-butynyl)-1,5-dihydro-5-(trifluoromethyl)-1,4-benzodiazepin-2-one], the melting point was 185 to 187 °C.

In the case of `O=C1C=NC(C#Cc2cccs2)(C(F)(F)F)c2cc(Cl)ccc2N1` (centres unmarked) [compound 135, 7-Chloro-5-(2-thienylethynyl)-1,5-dihydro-5-(trifluoromethyl)-1,4-benzodiazepin-2-one], the melting point is 196 to 198 °C.

`CCCCN1CC(=O)Nc2ccc(Cl)cc2C1(C#CC(C)C)C(F)(F)F` (centres unmarked) [compound 136, 7-Chloro-4-butyl-5-(3-methyl-1-butynyl)-1,5-dihydro-5-(trifluoromethyl)-1,4-benzodiazepin-2-one] gave a melting point of 123 to 125 °C. In the case of `O=C1CN(Cc2ccccc2F)C(C(F)(F)F)c2cc(Cl)ccc2N1` (centres unmarked) [compound 137, 7-Chloro-4-(2-fluorobenzyl)-1,5-dihydro-5-(trifluoromethyl)-1,4-benzodiazepin-2-one], the melting point was in the range of 170 to 171 °C. For `O=C1CN(CCc2ccccc2Cl)C(C(F)(F)F)c2cc(Cl)ccc2N1` (centres unmarked) [compound 138, 7-Chloro-4-(2-(2-chlorophenyl)ethyl)-1,5-dihydro-5-(trifluoromethyl)-1,4-benzodiazepin-2-one], the melting point fell in the range of 161 to 162 °C. `O=C1CN(C(=O)c2ccccc2)C(C(F)(F)F)c2cc(Cl)ccc2N1` (centres unmarked) [compound 139, 7-Chloro-4-benzoyl-1,5-dihydro-5-(trifluoromethyl)-1,4-benzodiazepin-2-one] showed a melting point of 257 to 258 °C.

The compound `O=C1CN(CCc2ccccc2I)C(C(F)(F)F)c2cc(Cl)ccc2N1` (centres unmarked) [compound 140, 7-Chloro-4-(2-(2-iodophenyl)ethyl)-1,5-dihydro-5-(trifluoromethyl)-1,4-benzodiazepin-2-one] gave a melting point of 172 to 173 °C.
